Experimental data as given in ChEMBL document CHEMBL1909046, “DrugMatrix in vitro pharmacology data”.

Tests used:
[1] = target: T1, Alpha-1A adrenergic receptor (Rattus norvegicus, UniProt P43140); experiment: DRUGMATRIX: Alpha-1A adrenergic receptor radioligand binding (ligand: prazosin); type: cell membranes, Wistar, Submaxillary gland, Membrane; details: Not Active = under 50% inhibition at 10 µM
T1 sequence (P43140 whole entry): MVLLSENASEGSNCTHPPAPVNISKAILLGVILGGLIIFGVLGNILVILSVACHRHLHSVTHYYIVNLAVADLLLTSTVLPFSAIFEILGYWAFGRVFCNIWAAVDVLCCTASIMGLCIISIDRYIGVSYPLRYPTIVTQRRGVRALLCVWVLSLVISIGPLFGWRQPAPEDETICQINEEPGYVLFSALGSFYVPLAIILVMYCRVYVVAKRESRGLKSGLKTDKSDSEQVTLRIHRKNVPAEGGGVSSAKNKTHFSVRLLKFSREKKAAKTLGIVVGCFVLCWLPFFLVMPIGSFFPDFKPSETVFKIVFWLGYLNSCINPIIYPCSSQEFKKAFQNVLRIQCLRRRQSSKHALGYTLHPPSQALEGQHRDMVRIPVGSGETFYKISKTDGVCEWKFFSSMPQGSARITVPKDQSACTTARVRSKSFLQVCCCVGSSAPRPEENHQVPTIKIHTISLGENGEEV

[2] = target: Sodium-dependent noradrenaline transporter (Homo sapiens, UniProt P23975); experiment: DRUGMATRIX: Norepinephrine Transporter radioligand binding (ligand: [125I] RTI-55); type: cell membranes, MDCK, Membrane; details: mdck; Not Active = under 50% inhibition at 10 µM
[3] = target: D(3) dopamine receptor (Homo sapiens, UniProt P35462); experiment: DRUGMATRIX: Dopamine D3 radioligand binding (ligand: [3H] Spiperone); type: cell membranes, CHO, Membrane; details: cho
[4] = DRUGMATRIX: GABAA, Flunitrazepam, Central radioligand binding (ligand: [3H] Flunitrazepam); type: cell membranes, Rattus norvegicus, Wistar, Brain, Membrane; details: Not Active = under 50% inhibition at 10 µM
[5] = target: T2, Receptor-type tyrosine-protein phosphatase C (Homo sapiens, UniProt P08575); design: species or system Escherichia coli;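 also: inhibition of CD45 enzyme activity measured using DiFMUP as substrate; in other assays of this panel Not Active means under 50% inhibition at 10 µM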
T2 sequence (P08575 whole entry): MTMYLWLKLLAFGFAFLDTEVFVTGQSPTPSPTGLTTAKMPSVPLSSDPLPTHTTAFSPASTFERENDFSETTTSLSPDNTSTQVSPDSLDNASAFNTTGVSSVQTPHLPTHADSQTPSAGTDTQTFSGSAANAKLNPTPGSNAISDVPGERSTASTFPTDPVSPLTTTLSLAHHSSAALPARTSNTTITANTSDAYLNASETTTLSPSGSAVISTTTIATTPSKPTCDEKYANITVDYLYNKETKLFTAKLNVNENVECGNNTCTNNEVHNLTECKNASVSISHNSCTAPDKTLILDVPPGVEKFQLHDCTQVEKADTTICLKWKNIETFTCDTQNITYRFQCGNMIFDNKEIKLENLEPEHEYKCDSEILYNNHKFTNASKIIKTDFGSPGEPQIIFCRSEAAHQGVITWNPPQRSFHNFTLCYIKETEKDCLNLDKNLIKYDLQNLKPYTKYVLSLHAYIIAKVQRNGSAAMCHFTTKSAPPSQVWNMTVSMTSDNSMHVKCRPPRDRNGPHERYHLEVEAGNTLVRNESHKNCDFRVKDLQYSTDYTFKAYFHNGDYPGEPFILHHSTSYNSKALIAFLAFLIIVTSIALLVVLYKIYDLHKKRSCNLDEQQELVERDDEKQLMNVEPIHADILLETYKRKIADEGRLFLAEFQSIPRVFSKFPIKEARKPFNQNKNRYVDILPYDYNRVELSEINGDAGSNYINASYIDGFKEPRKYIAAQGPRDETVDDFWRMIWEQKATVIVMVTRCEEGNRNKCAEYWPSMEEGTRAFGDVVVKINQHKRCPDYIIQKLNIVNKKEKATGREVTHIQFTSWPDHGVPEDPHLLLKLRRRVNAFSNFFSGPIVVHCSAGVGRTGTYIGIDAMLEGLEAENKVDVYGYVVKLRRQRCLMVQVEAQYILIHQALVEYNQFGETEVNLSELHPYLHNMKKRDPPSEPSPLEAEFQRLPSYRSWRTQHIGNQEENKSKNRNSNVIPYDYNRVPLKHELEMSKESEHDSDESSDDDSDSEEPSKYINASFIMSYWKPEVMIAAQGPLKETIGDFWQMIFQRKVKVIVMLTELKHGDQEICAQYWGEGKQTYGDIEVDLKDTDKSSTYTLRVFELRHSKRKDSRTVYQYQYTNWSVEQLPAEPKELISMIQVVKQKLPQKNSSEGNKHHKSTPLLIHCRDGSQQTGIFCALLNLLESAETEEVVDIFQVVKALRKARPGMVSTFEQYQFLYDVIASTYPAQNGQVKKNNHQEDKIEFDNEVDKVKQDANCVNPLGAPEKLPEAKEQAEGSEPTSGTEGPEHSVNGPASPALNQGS

Chain of Sodium-dependent noradrenaline transporter (P23975 whole entry): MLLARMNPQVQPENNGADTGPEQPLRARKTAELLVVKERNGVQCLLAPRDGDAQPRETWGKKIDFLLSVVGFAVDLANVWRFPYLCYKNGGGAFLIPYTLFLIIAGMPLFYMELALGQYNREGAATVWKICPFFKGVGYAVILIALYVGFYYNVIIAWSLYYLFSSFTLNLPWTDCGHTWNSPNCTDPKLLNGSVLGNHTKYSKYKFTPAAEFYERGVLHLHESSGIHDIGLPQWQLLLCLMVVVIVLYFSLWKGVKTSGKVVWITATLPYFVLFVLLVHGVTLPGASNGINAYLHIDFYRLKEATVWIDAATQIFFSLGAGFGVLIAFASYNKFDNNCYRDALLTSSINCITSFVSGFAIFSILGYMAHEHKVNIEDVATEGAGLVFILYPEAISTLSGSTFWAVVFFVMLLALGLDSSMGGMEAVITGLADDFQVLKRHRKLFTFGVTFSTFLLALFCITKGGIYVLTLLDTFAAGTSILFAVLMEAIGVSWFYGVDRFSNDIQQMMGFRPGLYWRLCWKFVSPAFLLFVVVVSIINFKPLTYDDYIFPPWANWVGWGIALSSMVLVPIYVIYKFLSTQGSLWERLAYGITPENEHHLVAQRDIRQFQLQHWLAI
Chain of D(3) dopamine receptor (P35462 whole entry): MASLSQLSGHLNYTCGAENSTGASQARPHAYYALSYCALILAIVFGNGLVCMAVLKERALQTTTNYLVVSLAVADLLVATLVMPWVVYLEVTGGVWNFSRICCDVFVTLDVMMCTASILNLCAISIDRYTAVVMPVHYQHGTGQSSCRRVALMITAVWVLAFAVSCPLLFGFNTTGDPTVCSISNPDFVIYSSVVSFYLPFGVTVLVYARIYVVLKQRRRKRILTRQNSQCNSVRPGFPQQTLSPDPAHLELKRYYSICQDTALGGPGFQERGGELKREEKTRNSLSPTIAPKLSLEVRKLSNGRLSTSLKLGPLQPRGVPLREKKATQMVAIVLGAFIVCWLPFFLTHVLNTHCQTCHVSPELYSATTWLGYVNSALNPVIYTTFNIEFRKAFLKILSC

Row | Structure (SMILES) | IC50 [1] | IC50 [2] | IC50 [3] | IC50 [4] | Ki [4] | IC50 [5] | IC50 ([4]; read-out: IC50) | Ki ([4]; read-out: Ki) | IC50 ([1]; read-out: IC50) | Ki ([1]; read-out: Ki)
1 | O=C(c1ccccc1C(F)(F)F)N1CCC(Cc2ccccc2)CC1 | Not Active | Not Active | Not Active | Not Active | Not Active | Not Active |  |  |  | 
2 | O=C/C=C/c1ccccc1 | Not Active | Not Active | Not Active | Not Active | Not Active | Not Active |  |  |  | 
3 | Nc1ccc2c3c(cccc13)C(=O)NC2=O | Not Active | Not Active | Not Active | Not Active | Not Active | Not Active |  |  |  | 
4 | COc1ccc(C(=O)N2CCCC2=O)cc1 | Not Active | Not Active | Not Active | Not Active | Not Active | Not Active |  |  |  | 
5 | O=c1cnn([C@@H]2O[C@H](CO)[C@@H](O)[C@H]2O)c(=O)[nH]1 [6-AZAURIDINE] | Not Active | Not Active | Not Active | Not Active | Not Active | Not Active |  |  |  | 
6 | CC[C@H](C)[C@H]1O[C@]2(C=C[C@@H]1C)C[C@@H]1C[C@@H](C/C=C(\C)[C@@H](O[C@H]3C[C@H](OC)[C@@H](O[C@H]4C[C@H](OC)[C@@H](O)[C@H](C)O4)[C@H](C)O3)[C@@H](C)/C=C/C=C3\CO[C@@H]4[C@H](O)C(C)=C[C@@H](C(=O)O1)[C@]34O)O2.CO[C@H]1C[C@H](O[C@H]2[C@H](C)O[C@@H](O[C@@H]3/C(C)=C/C[C@@H]4C[C@@H](C[C@]5(C=C[C@H](C)[C@@H](C(C)C)O5)O4)OC(=O)[C@@H]4C=C(C)[C@@H](O)[C@H]5OC/C(=C\C=C\[C@@H]3C)[C@]54O)C[C@@H]2OC)O[C@@H](C)[C@@H]1O [ABAMECTIN] | Not Active | Not Active | Not Active | Not Active | Not Active | Not Active |  |  |  | 
7 | NCCCC(O)(P(=O)(O)O)P(=O)(O)O [ALENDRONIC ACID] | Not Active | Not Active | Not Active | Not Active | Not Active | Not Active |  |  |  | 
8 | Cc1nnc2n1-c1ccc(Cl)cc1C(c1ccccc1)=NC2 [ALPRAZOLAM] | Not Active | Not Active | Not Active |  |  | Not Active | 0.0166 µM | 0.0135 µM |  | 
9 | Cn1c(=O)c2[nH]cnc2n(C)c1=O.Cn1c(=O)c2[nH]cnc2n(C)c1=O.NCCN [AMINOPHYLLINE] | Not Active | Not Active | Not Active | Not Active | Not Active | Not Active |  |  |  | 
10 | CCC1(CCC(C)C)C(=O)NC(=O)NC1=O [AMOBARBITAL] | Not Active | Not Active | Not Active | Not Active | Not Active | Not Active |  |  |  | 
11 | CC1(C)S[C@@H]2[C@H](NC(=O)[C@H](N)c3ccccc3)C(=O)N2[C@H]1C(=O)O [AMPICILLIN] | Not Active |  | Not Active | Not Active | Not Active | Not Active |  |  |  | 
12 | COc1ccc(C2C(=O)c3ccccc3C2=O)cc1 [ANISINDIONE] | Not Active | Not Active | Not Active | Not Active | Not Active | Not Active |  |  |  | 
13 | O=C1O[C@H]([C@@H](O)CO)C(O)=C1O [ASCORBIC ACID] | Not Active | Not Active | Not Active | Not Active | Not Active | Not Active |  |  |  | 
14 | CN1[C@@H]2CC[C@H]1C[C@@H](OC(=O)C(CO)c1ccccc1)C2 (some centres undefined) [ATROPINE] | Not Active | Not Active | Not Active | Not Active | Not Active | Not Active |  |  |  | 
15 | COc1cc2nc(N3CCN(C(=O)c4ccco4)CC3)nc(N)c2cc1OC [PRAZOSIN] |  | Not Active | Not Active | Not Active | Not Active | Not Active |  |  |  | 
16 | CCCNCC(O)COc1ccccc1C(=O)CCc1ccccc1 (centres undefined) [PROPAFENONE] |  |  | Not Active | Not Active | Not Active | Not Active |  |  | 6.15 µM | 2.49 µM
